Source: EP1093379B1, “USE OF INHIBITORS OF PROTEIN KINASE C EPSILON TO TREAT PAIN” (The Regents of the University of California, priority 1998, dated 2007)
Read-outs that look alike come from different tables or passages of the source.

Columns and labels:
[1] = tested on: prolonged PGE2-induced hyperalgesia; test: Chronic inflammatory pain model: prolonged hyperalgesia in carrageenan-sensitized rats (Randall-Selitto paw-withdrawal test); type: in vivo; conditions: for duration of hyperalgesia in untreated rats: rats that have not received carrageenan injections; for duration of hyperalgesia in carrageenan-sensitized rats: seen up to three weeks after the carrageenan injection
Description: In order to investigate the role, if any, of PKCε in chronic inflammatory pain, the following model system for chronic inflammatory pain was developed. Rats received intradermal hind paw injections of carrageenan, an inflammatory agent. […] This was considered an acute response to the carrageenan-induced inflammation. Although administration of Prostaglandin E2 ("PGE2"), 5-hydroxytryptamine ("5-HT," serotonin) or CGS-21680 (an adenosine A2-selective receptor agonist) normally causes untreated rats (that is, rats that have not received carrageenan injections) to experience hyperalgesia lasting up to 6 hours, the hyperalgesia experienced by carrageenan-sensitized rats following administration of any one of these substances lasted up to 24 hours.
The prolonged PGE2-induced hyperalgesia normally seen in carrageenan-sensitized rats was inhibited by administration of BIM or εV1-2.
To examine whether protein kinase C modulates the processes by which a brief inflammatory event causes prolonged hyperalgesia many days later, rats received carrageenan and 1µg BIM injections at the same time. Hyperalgesia was measured 72 hours later, when the rats were treated PGE2. […] Therefore, administration of an inhibitor of PKC either at approximately the same time as the inflammatory agent giving rise to chronic, prolonged hyperalgesia or at about the same time as the hyperalgesia-inducing stimulus can lessen such chronic hyperalgesia.

[2] = tested on: mechanical nociceptive threshold; test: von Frey hair paw-withdrawal frequency in wild-type mice; type: in vivo; conditions: 100ng by intraplantar injection prior to VFH stimulation (4, 6.9 or 14.8 grams)
Experimental: Mechanical, thermal and chemical nociception were evaluated in wild-type and PKCε-mutant mice.

[3] = tested on: PGE2-induced hyperalgesia; conditions: cited from earlier work; for Percentage decrease in nociceptive threshold in response to PGE2: PGE2 100 ng alone or with DAMGO, SQ22536, Rp-cAMPs (1 µg), data from Khasar 1995 / Taiwo and Levine 1991
[4] = tested on: vincristine-induced hyperalgesia; test: Vincristine-induced hyperalgesia model, mechanical stimuli (Ugo Basile analgesymeter); type: in vivo, rat; conditions: vincristine 100 µg/kg intravenously daily; after the second day
Experimental: (§1) Humans undergoing chemotherapy frequently experience hyperalgesia. Vincristine is a chemotherapeutic drug known to cause such hyperalgesia, and a rat model of vincristine-induced hyperalgesia was established as follows. Vincristine (100 µg/kg in saline; Sigma Chemical Catalog) was administered intravenously daily to each of 32 rats over a period of two weeks.
To determine whether administration of an inhibitor of PKCε would lessen vincristine-induced hyperalgesia in the rat model described above, on the 13th day of vincristine treatment, rats received no treatment (n= 16) or intradermal injections of sterile water followed by intradermal injections of either 1µg εV1-2, a PKCε inhibitory peptide (n=8; labeled "PKCεI" on Figure 12A), or 1µg S-VεV1-2, a scrambled version of the εV1-2 peptide (n=8; labeled "PCKεI SCR" on Figure 12A), 20-30 minutes before administration of a mechanical stimulus.

[5] = Rotorod analysis of motor deficits; type: in vivo, rat; conditions: vincristine 100 µg/kg intravenously daily
Experimental: as §1

TTX-RINa = type: cell-based, rat; conditions: for effect on epinephrine-induced potentiation of TTX-RINa: 2µM propranolol, 5µM phentolamine, 100µM Rp-cAMPs, 100µM BIM
[6] = tested on: small diameter DRG neurons
[7] = tested on: epinephrine-induced hyperalgesia; test: Epinephrine-induced mechanical hyperalgesia, paw-withdrawal threshold (Ugo Basile analgesymeter); type: in vivo, rat
[8] = tested on: isoproterenol-induced hyperalgesia; test: Isoproterenol-induced mechanical hyperalgesia, paw-withdrawal threshold; type: in vivo, rat; conditions: for effect on isoproterenol-induced hyperalgesia: intradermal, BIM 1 µg, WIPTIDE 100 ng, propranolol dose not given
Experimental: To examine the role of β-AR in epinephrine-induced hyperalgesia, propranolol, a β-AR antagonist, and isoproterenol, a selective β-AR agonist, were administered by intradermal injection.
(§2) The roles of PKC, protein kinase A ("PKA") and the µ-opioid receptor in mediating epinephrine-induced hyperalgesia were assessed by measuring the effects of: Rp-adenosine 3', 5'-cyclic monophosphate ("Rp-cAMPs") and WIPTIDE, both inhibitors of PKA; SQ22536, an inhibitor of adenylyl cyclase, an enzyme activated by PKA; bisindolymaleimide ("BIM"), a nonselective inhibitor of PKC isozymes; and [D-Ala^2,N-Me-Phe^4,Gly^5-ol]-enkephalin ("DAMGO"), p-opioid receptor agonist. The dose for each inhibitor was 1µg, except for WIPTIDE, which was administered in a 100ng dose. […] A large numeric value means more hyperalgesia.

[9] = tested on: epinephrine-induced hyperalgesia; test: Epinephrine-induced mechanical hyperalgesia, paw-withdrawal threshold (Ugo Basile analgesymeter); type: in vivo, rat; conditions: for effect on epinephrine-induced hyperalgesia: intradermal, rat hindpaw, inhibitors 1 µg (WIPTIDE 100 ng) 15 minutes prior to epinephrine, DAMGO co-injected, antagonist doses not given; for Percentage decrease in nociceptive threshold in response to epinephrine: epinephrine 100 ng alone or with DAMGO, SQ22536, BIM, Rp-cAMPs (all 1 µg) or WIPTIDE (0.1 µg), large value = more hyperalgesia
Experimental: as §2

basal paw threshold = conditions: similar dose of phentolamine, normal rat; earlier studies; cited from earlier work
[10] = tested on: formalin-induced hyperalgesia; conditions: similar dose of phentolamine; earlier studies; cited from earlier work
[11] = tested on: PGE2-induced hyperalgesia; test: PGE2-induced mechanical hyperalgesia, paw-withdrawal threshold; type: in vivo, rat
Experimental: The roles of PKC, protein kinase A ("PKA") and the µ-opioid receptor in mediating epinephrine-induced hyperalgesia were assessed by measuring the effects of: Rp-adenosine 3', 5'-cyclic monophosphate ("Rp-cAMPs") and WIPTIDE, both inhibitors of PKA; SQ22536, an inhibitor of adenylyl cyclase, an enzyme activated by PKA; bisindolymaleimide ("BIM"), a nonselective inhibitor of PKC isozymes; and [D-Ala^2,N-Me-Phe^4,Gly^5-ol]-enkephalin ("DAMGO"), p-opioid receptor agonist. The dose for each inhibitor was 1µg, except for WIPTIDE, which was administered in a 100ng dose. DAMGO was co-injected with epinephrine whereas the other inhibitors were applied 15 minutes prior to epinephrine injection. […] TABLE 1: Percentage decrease in nociceptive threshold in response to epinephrine, PGE2 or isoproterenol (each 100 ng) and effects of DAMGO, SQ22536, BIM, Rp-cAMPs (all 1 µg) or WIPTIDE (0.1 µg). A large numeric value means more hyperalgesia.
For mechanical nociceptive testing, the nociceptive flexion reflex was quantified using an Ugo Basile analgesymeter that applies a constantly increasing force measured in grams (Stoelting, Chicago, IL; K. O. Aley, J. D. Levine, J. Neurosci. 17, 8018-23 (1997)). The mean basal mechanical threshold for rats used in these experiments was 105.3+/-2.8 grams. The effects of hyperalgesia-inducing agents epinephrine (100ng) and PGE2 (100ng) on mechanical nociceptive thresholds were determined by measuring paw withdrawal frequencies at 15, 20, and 25 minutes after administration of the hyperalgesic agent and then calculating the mean of these three readings.

[12] = tested on: PGE2-induced hyperalgesia; conditions: PGE2 100 ng alone or with DAMGO, SQ22536, Rp-cAMPs (1 µg); data from Khasar 1995 / Taiwo and Levine 1991; cited from earlier work
[13] = 1µM epinephrine with 100µM BIM v. epinephrine alone
[14] = after 1µg epinephrine injection

NCCc1c[nH]c2ccc(O)cc12 [5-HT, 5-hydroxytryptamine]
duration of hyperalgesia in untreated rats [1]: up to 6 hours
duration of hyperalgesia in carrageenan-sensitized rats [1]: up to 24 hours

CCNC(=O)[C@H]1O[C@@H](n2cnc3c(N)nc(NCCc4ccc(CCC(=O)O)cc4)nc32)[C@H](O)[C@@H]1O [CGS-21680]
duration of hyperalgesia in untreated rats [1]: up to 6 hours
duration of hyperalgesia in carrageenan-sensitized rats [1]: up to 24 hours

CCCCC[C@H](O)/C=C/[C@H]1[C@H](O)CC(=O)[C@@H]1C/C=C\CCCC(=O)O [PGE2, prostaglandin E2]
percent-withdrawal response to VFH stimulus [2]: dramatically increased
duration of hyperalgesia in untreated rats [1]: up to 6 hours
duration of hyperalgesia in carrageenan-sensitized rats [1]: up to 24 hours
Percentage decrease in nociceptive threshold in response to PGE2 [3]: 33.6±1.9%

CC[C@]1(O)C[C@H]2CN(CCc3c([nH]c4ccccc34)[C@@](C(=O)OC)(c3cc4c(cc3OC)N(C=O)[C@H]3[C@@](O)(C(=O)OC)[C@H](OC(C)=O)[C@]5(CC)C=CCN6CC[C@]43[C@@H]65)C2)C1 [Vincristine]
mechanical nociceptive thresholds of vincristine-treated rats [4]: acute dose-dependent decrease in mechanical nociceptive thresholds
motor deficits (Rotorod analysis) [5]: did not show any significant motor deficits

CNC[C@H](O)c1ccc(O)c(O)c1 [epinephrine]
mean peak current increase (TTX-RINa; [13]): 49%
number of neurons responsive to epinephrine (TTX-RINa; [13]): 8 out of 11
neurons with an increase in TTX-RINa (TTX-RINa; 1µM epinephrine, 14 out of 21 neurons): 67%
shift of current-voltage plots for activation (TTX-RINa; 1µM epinephrine, hyperpolarized direction): approximately 10 mV
effect on TTX-RINa (TTX-RINa; 1µM epinephrine, isoproterenol application): marked potentiation
percent-withdrawal response to VFH stimulus [2]: dramatically increased
mean resting potentials ([6]; 1µM epinephrine): unaffected
average number of action potentials generated in response to the current ramp-and-plateau ([6]; 1µM epinephrine, five minutes or more after start of perfusion, 1.7±0.2 before, 11 neurons): 5.3±0.9
neurons showing a decrease in spike latency of at least 50ms ([6]; 1µM epinephrine, 5 of 11 neurons): 45%
neurons showing an increase in spike number ([6]; 1µM epinephrine, nine of 11 neurons): 81%
mean latency from the start of current injection to the peak of the first spike ([6]; following 1µM epinephrine perfusion, 278±42ms without epinephrine, n=11): 189 ± 21 ms
duration of epinephrine-induced hyperalgesia [7, 14]: approximately 2 hours
onset latency of epinephrine-induced hyperalgesia (significant) [7, 14]: 2 min
time to peak effect of hyperalgesia [7, 14]: ≤ 5 min
Percentage decrease in nociceptive threshold in response to epinephrine ([7]; epinephrine 100 ng alone or with DAMGO, SQ22536, BIM, Rp-cAMPs (all 1 µg) or WIPTIDE (0.1 µg), large value = more hyperalgesia): 29.6±2.1%
threshold reduction (mechanical nociceptive threshold) ([7]; epinephrine 100ng only, or sterile water and 1µg scrambled peptide prior to epinephrine, mean of 15, 20, 25 minutes, n=8): 25-30%
threshold at which the rat withdrew the paw ([7]; intradermal injections of 1ng to 1µg epinephrine, dorsal surface of hindpaw): dose-dependent decrease

COc1ccc2c(c1)c(CC(=O)O)c(C)n2C(=O)c1ccc(Cl)cc1 [indomethacin]
effect on the ability of epinephrine to induce hyperalgesia ([7]; continuous treatment with 4mg/kg of indomethacin, n=8): Neither indomethacin treatment nor sympathectomy had any effect

CC(C)NCC(O)c1ccc(O)c(O)c1 (centres unmarked) [isoproterenol]
hyperalgesia produced in the absence of epinephrine ([8]; intradermal injection of isoproterenol): dose-dependent hyperalgesia

Cc1ccc(N(CC2=NCCN2)c2cccc(O)c2)cc1 [phentolamine]
effect on epinephrine-induced hyperalgesia [9]: did not significantly affect
effect on epinephrine-induced potentiation of TTX-RINa (TTX-RINa; 1µM epinephrine): did not
effect on ability of rolipram to prolong PGE2-induced hyperalgesia ([3]; similar dose of phentolamine, earlier studies): inhibited
effect on basal paw threshold (basal paw threshold): no effect
effect on formalin-induced hyperalgesia [10]: significantly reversed

CC(C)NCC(O)COc1cccc2ccccc12 (centres unmarked) [propranolol]
effect on epinephrine-induced hyperalgesia [9]: significantly attenuated
effect on isoproterenol-induced hyperalgesia [8]: significantly attenuated
effect on epinephrine-induced potentiation of TTX-RINa (TTX-RINa; 1µM epinephrine): eliminated this potentiation

Rp-adenosine 3', 5'-cyclic monophosphate [Rp-cAMPs]
Percentage decrease in nociceptive threshold in response to epinephrine [9]: 13.9 ± 4.6 %
effect on epinephrine-induced potentiation of TTX-RINa (TTX-RINa; 1µM epinephrine): abolished
Percentage decrease in nociceptive threshold in response to PGE2 [3]: 3.1 ± 5.2 %

WIPTIDE
Percentage decrease in nociceptive threshold in response to epinephrine [9]: 10.9 ± 3.6 %
Percentage decrease in nociceptive threshold in response to PGE2 ([11]; PGE2 100 ng with BIM (1 µg) or WIPTIDE (0.1 µg)): 9.4 ± 3.1 %
effect on PGE2-induced hyperalgesia ([11]; same dose as for epinephrine: BIM 1 µg, WIPTIDE 100 ng): significantly attenuated
effect on isoproterenol-induced hyperalgesia [8]: almost completely abolished
Percentage decrease in nociceptive threshold in response to isoproterenol ([8]; isoproterenol 100 ng alone or with BIM (1 µg) or WIPTIDE (0.1 µg)): 1 ± 2.8 %

[D-Ala^2,N-Me-Phe^4,Gly^5-ol]-enkephalin [DAMGO]
Percentage decrease in nociceptive threshold in response to epinephrine [9]: 11.5 ± 3.1 %
Percentage decrease in nociceptive threshold in response to PGE2 [12]: 11.1 ± 4.0 %
